Read-outs that look alike come from different tables or passages of the source. Where a SMILES comes first, the peptide text is derived from it. The star is where a group is joined. NHPhenethyl = c1ccc(CCN*)cc1 Some results are limits rather than exact numbers.

The test system of one assay is mouse vas deferens. The note with it: mouse vas deferens test; cited from earlier work.
The next assay has as its system guinea pig ileum. The note with it: guinea pig ileum test; cited from earlier work.
Another assay deals with rat. The note with it: relative to morphine, cited from earlier work.
Another assay deals with opiate receptor. To be noted: rat brain membranes, relative to morphine; cited from earlier work.
For assay [1], the system named is guinea pig ileum longitudinal muscle with adhering myenteric plexus. The experiment in a line: Guinea pig ileum test (electrically stimulated longitudinal muscle, inhibition of twitch height). To be noted: ratio of IC50 of reference compound Met^5-enkephalin to IC50 of test compound in the same preparation, averaged (N=4); reference given as 100. It is filed as cell-based. The procedure: Adult male guinea pigs (Charles River, Hartley strain) weighing 300-500 g. are decapitated, and the terminal ileum is exposed by reflecting the overlying cecum, severed at the ileocecal juncture, and removed while cutting the mesenteric attachments to avoid excessive traction on the tissue. The ileum (about 30 cm. in length) is transferred to a beaker containing warm modified Krebs-Henseleit solution (118 mM sodium chloride, 4.75 mM potassium chloride, 2.54 mM calcium chloride, 1.19 mM potassium dihydrogen phosphate, 1.2 mM magnesium sulfate, 25 mM sodium bicarbonate, 11 mM glucose, 20 μM choline chloride and 0.125 μM pyrilamine maleate). The terminal (aboral) portion (about 10 cm. in length) is discarded, and segments (3-4 cm. in length) are cut from the remainder and gently slid onto a glass rod (5-6 mm. in diameter) and arranged so that the mesenteric attachment is in a straight line. A cotton swab moistened in the solution is then carefully used to separate the longitudinal muscle from the underlying circular muscle. The longitudinal muscle and adhering myenteric plexus is then gently removed from the remaining tissue with forceps.
Strips of this prepared longitudinal muscle are mounted in a double-jacketed organ bath (5 ml.) under tension (1.0 g.), connected to isometric transducers (Grass FT .03), bathed in the modified Krebs-Henseleit solution described above, aerated with oxygen-carbon dioxide (95:5) and maintained at 37° C.
Stimulators (Grass S-44) are set to deliver repetitive monophasic square wave field stimulation (supramaximal voltage, 0.10 Hz., 0.25 msec. duration) through platinum ring electrodes at the top and bottom of the bath. Regular contractions of the muscle, which result from electrically-induced liberation of acetylcholine from postganglionic parasympathetic nerves, are recorded on a polygraph (Grass model 5). Following tissue equilibration (45-60 min.) and repeated washing (every 10 min.) an aqueous solution of a reference or test compound is added to the bath in a microliter volume (1.25-250 μl) and reductions in muscle twitch height are recorded. More compound can be added […] first washing the preparation.
From the results a half-maximal inhibitory concentration (IC50) value for the compound is computed by regression analysis of a linear plot of logarithm of concentration against percent of inhibition of twitch height (probits). The ratio of the IC50 value of a reference compound to that of a test compound tested in the same preparation is the molar potency ratio. Usually four preparations are tested simultaneously by the same person (N=4), and the resulting four molar potency ratios are averaged. […]

In the case of `C[C@@H](NC(=O)[C@@H](N)Cc1ccc(O)cc1)C(=O)NCCNCCc1ccccc1` [HTyrD-AlaNH(CH2)2 NH(CH2)2 Phenyl], the “potency relative to Met-enkephalin” value with mouse vas deferens and with guinea pig ileum was < 1% throughout. Turning to `C[C@@H](NC(=O)[C@@H](N)Cc1ccc(O)cc1)C(N)=O` [H-Tyr-D-Ala-NH2], the “times less potent than morphine, tail flick test” value with rat (intravenously) was “greater than 10 times”; in the assay with rat (intraventricularly), 200 times. Moreover, the “times less affinity than morphine, opiate receptor binding” value with opiate receptor is on record as 830 times. As to Met^5 -enkephalin [Met^5 --enkephalin], the “Average Molar Potency Ratio” value in assay [1] worked out at 100. Same read-out and setting: under `N[C@@H](Cc1ccc(O)cc1)C(=O)N1CCC[C@H]1C(=O)NCCCc1ccccc1` [Example 2, L-tyrosyl-N-(3-phenylpropyl)-L-prolinamide] stands 6. As to `CN(CCCc1ccccc1)C(=O)[C@@H]1CCCN1C(=O)[C@@H](N)Cc1ccc(O)cc1` [Example 3, L-tyrosyl-N-methyl-N-(3-phenylpropyl)-L-prolinamide], the “Average Molar Potency Ratio” value in assay [1] is reported as 9. For the compound `N[C@@H](Cc1ccc(O)cc1)C(=O)N1CCC[C@H]1C(=O)NCCc1ccccc1` [Example 1, L-tyrosyl-N-(2-phenylethyl)-L-prolinamide] (H-Tyr-Pro-NHPhenethyl), in assay [1], the “Average Molar Potency Ratio” value came to 117.

(Values after patent US4450155A, “Analgesic dipeptide amides and method of use and compositions thereof” (Sterling Drug Inc., priority 1982, dated 1984).)
